Reference: patent US20230274811A1, “METHODS OF MAKING PROSTATE CANCER TREATMENT DECISIONS” (Progenics Pharmaceuticals, Inc., priority 2020, published 2023)
Values joined by “and” are separate entries in the source; they are usually repeats but may differ in a detail not shown here. Equal entries are not always repeated. “Also recorded” adds a separate entry of the source. Where two headings read alike, the source gives them in different places.

How the values were obtained:
[1] = tested on: PSMA-positive PC3 PIP tumor; assay: Uptake in mouse xenografts; format: in vivo; settings: PSMA-positive PC3 PIP vs PSMA-negative PC3 flu tumors
[2] = tested on: pelvic lymph node metastases; assay: OSPREY Cohort A: 18F-DCFPyL PET/CT detection of pelvic lymph node metastases vs histopathology; format: in vivo, men; settings: for NPV % (95% CI) / PPV % (95% CI) / Sensitivity % (95% CI) / Specificity % (95% CI): N=252
Source text: Histopathology served as the reference standard to which imaging findings were compared. FIG. 1 provides information regarding the study design and cohorts.
Imaging findings were compared to histopathology as the truth standard.
In OSPREY, 268 patients at high risk for pelvic lymph node metastasis who were planned for initial definitive therapy underwent PyLARIFY imaging. […] PyLARIFY and baseline conventional imaging reader interpretations were compared to pathologic staging of pelvic nodal metastases.

[3] = tested on: primary tumor in the gland; assay: OSPREY Cohort A: 18F-DCFPyL PET/CT detection of primary tumor in the prostate gland vs surgical pathology; format: in vivo, men
Source text: Sensitivity, specificity, PPV and NPV of ^18F-DCFPyL PET/CT for detecting primary tumor in the gland and pelvic lymph node metastases were compared to conventional imaging (CI), either CT or MRI. Three central, blinded, and independent readers evaluated the ^18F-DCFPyL scans and one blinded central reader interpreted the CI. Imaging results were compared to surgical pathology as the truth standard.

[4] = OSPREY safety (adverse events); format: in vivo, men
Experimental: The coprimary endpoints of sensitivity and specificity of ^18F-DCFPyL PET/CT for detecting pelvic lymph node metastases were evaluated in Cohort A. Secondary endpoints included safety in both cohorts, positive predictive value (PPV) and negative predictive value (NPV) in Cohort A, and sensitivity and PPV in Cohort B. Three central, blinded, and independent readers evaluated the ^18F-DCFPyL scans. Histopathology served as the reference standard to which imaging findings were compared. FIG. 1 provides information regarding the study design and cohorts.
Co-primary endpoints of specificity and sensitivity of ^18F-DCFPyL PET/CT for detecting prostate cancer metastases in pelvic lymph nodes were evaluated in Cohort A. Key secondary endpoints included incidence of adverse events, positive predictive value (PPV) and negative predictive value (NPV) of ^18F-DCFPyL PET/CT imaging to detect pelvic lymph node metastases in Cohort A, sensitivity and PPV of ^18F-DCFPyL PET/CT imaging to detect prostate cancer within sites of metastasis or recurrence in Cohort B. Three central, blinded, and independent readers evaluated the ^18F-DCFPyL scans. Imaging findings were compared to histopathology as the truth standard.
Pts underwent image-guided biopsy.

high-risk PCa = assay: OSPREY Cohort A sub-analysis: TNM staging by 18F-DCFPyL PET/CT at initial staging; format: in vivo; settings: 252 men
Source text: Three central, blinded, and independent readers evaluated the ^18F-DCFPyL scans.

[5] = tested on: PCa recurrence or metastases; assay: OSPREY Cohort B sub-analysis: staging changes vs conventional imaging; format: in vivo, men
Experimental: Methods ^18F-DCFPyL-PET/CT was evaluated in 117 men with radiologic evidence of local recurrence or metastatic disease on baseline anatomical imaging (CT, MRI) or whole-body bone scintigraphy and in whom at least one lesion was deemed amenable to biopsy. […] Based on TNM staging: prostatic (T), pelvic LN (N), extra-pelvic LN (M1a), bone (M1b) and other visceral organs/soft tissue (M1c), ^18F-DCFPyL-PET/CT detection rates including lesion counts were systematically analyzed. Three central, blinded, and independent readers evaluated the ^18F-DCFPyL scans.

[6] = CONDOR safety (adverse events); format: in vivo, men
Source text: Pre- and post-treatment assessments also included vital signs and concomitant medications/procedures.

For O=C(O)CC[C@H](NC(=O)N[C@@H](CCCCNC(=O)c1ccc([18F])nc1)C(=O)O)C(=O)O [18F-DCFPyL, 2-(3-{1-carboxy-5-[(6-[^18F]fluoro-pyridine-3-carbonyl)-amino]-pentyl}ureido)-pentanedioic acid], the “uptake in mouse xenografts” value [1] was “taken up only in PSMA-positive PC3 PIP tumor and not in PSMA-negative PC3 flu tumors”, the “NPV, range among three readers” value ([2]; Cohort A, n=252 evaluable) was 81.4-83.8% and 81-84% and the “PPV, range among three readers” value ([2]; Cohort A, n=252 evaluable) was 78.1-90.5% and 78-91%. The “Sensitivity, range among three readers” value ([2]; Cohort A, n=252 evaluable) was 30.6-41.9% and 31-42%, the “Specificity, range among three readers” value ([2]; Cohort A, n=252 evaluable) was 96.3-98.9% and 96-99% and the “Sensitivity, range among three readers” value ([2]; Cohort A, restricted to median lymph node metastases >4 mm) was 51.7-65.5%. For the same compound, the “NPV % (95% CI)” value ([2]; Reader 1) was 84 (80, 89) %, the “PPV % (95% CI)” value ([2]; Reader 1) was 87 (70, 95) % and the “Sensitivity % (95% CI)” value ([2]; Reader 1) was 42 (30, 54) %. The “Specificity % (95% CI)” value ([2]; Reader 1) was 98 (95, 99) %, the “NPV % (95% CI)” value ([2]; Reader 2) was 81 (76, 86) % and the “PPV % (95% CI)” value ([2]; Reader 2) was 91 (70, 99) %. For the same compound, the “Sensitivity % (95% CI)” value ([2]; Reader 2) was 31 (19, 42) %, the “Specificity % (95% CI)” value ([2]; Reader 2) was 99 (96, 100) % and the “NPV % (95% CI)” value ([2]; Reader 3) was 83 (78, 87) %. For the same compound, the “PPV % (95% CI)” value ([2]; Reader 3) was 78 (64, 93) %, the “Sensitivity % (95% CI)” value ([2]; Reader 3) was 40 (28, 53) % and the “Specificity % (95% CI)” value ([2]; Reader 3) was 96 (94, 99) %. The “PPV, median of 3 readers” value [3] was 100% (0.98, 1.0), the “Sensitivity, median of 3 readers” value [3] was 98.0% (0.96, 1.0) and the “Sensitivity, median of 3 readers” value ([3]; listed as PyL) was 98%. For the same compound, the “drug-related serious adverse events” value ([4]; 385 men, both cohorts) was “No drug-related serious adverse events were observed”, the “dysgeusia, drug-related AE incidence” value ([4]; 385 men, both cohorts) was 2.1% and the “headache, drug-related AE incidence” value ([4]; 385 men, both cohorts) was 2.1%. The “men with ≥1 drug-related adverse event” value ([4]; 385 men, both cohorts) was 7.0%, the “severity of drug-related AEs (dysgeusia and generalized rash)” value ([4]; Cohort B) was “mild (Grade 1)” and the “pts with ≥1 drug-related AE” value ([4]; Cohort B, 117 men) was 1.7%. For the same compound, the tolerability ([4]; OSPREY) was “generally well tolerated”, the “patients upstaged to N1 or M1 disease” value (high-risk PCa) was 22% and the “pts staged M1a” value (high-risk PCa) was 0.4%. For the same compound, the “pts staged M1b” value (high-risk PCa) was 9.1%, the “pts staged M1c” value (high-risk PCa) was 1.2% and the “pts staged with M1 disease” value (high-risk PCa) was 10.7%. For the same compound, the “pts staged with N1 disease” value (high-risk PCa; no known nodal/metastatic disease on standard imaging) was 14.7%, the “up-staged pts with extra-pelvic biopsy confirmed M1 by pathology” value ([5]; 10/11) was 91% and the “baseline M1 pts upstaged to a higher M1 sub-stage” value ([5]; 10/64) was 16%. The “baseline M1 pts down-staged to M0” value ([5]; 18/82) was 22%, the “pts up-staged from M0 to M1” value ([5]; 19/33 M0 at baseline by conventional imaging) was 58% and the “patients experiencing AEs” value ([6]; 14 patients, 21 AEs) was 6.7%. For the same compound, the “drug-related serious adverse event” value ([6]; 208 men) was “A single serious adverse event (AE) was reported as related to study drug (hypersensitivity); also recorded: hypersensitivity was the single drug-related Grade 3 AE”, the “fatigue, AE incidence” value ([6]; 208 men) was 1.0% and the “headache, AE incidence” value ([6]; 208 men) was 1.9%. The “hypertension, AE incidence” value ([6]; 208 men) was 1.0%, the “drug-related serious adverse event” value ([6]; 208 men, listed as PyL) was “one drug-related SAE (hypersensitivity)” and the tolerability ([6]; CONDOR) was “well tolerated”. The “Grade 4 AEs, deaths, AEs leading to discontinuation” value ([6]; in vivo) was “There were no Grade 4 AEs, nor were there deaths or AEs that led to discontinuation of the study”, the “changes in vital signs pre- to post-dosing” value ([6]; in vivo) was “No clinically relevant changes in vital signs were observed” and the “patients with Grade 3, serious AEs (hypersensitivity, headache, paresthesia)” value ([6]; one patient) was 0.5%. The “AEs in case studies 1-3” value ([6]; single patients) was “No AEs were reported”.
